These results are taken from ChEMBL document CHEMBL1795338, “Identification of pentacyclic triterpenes derivatives as potent inhibitors against glycogen phosphorylase based on 3D-QSAR studies” (Eur J Med Chem, 2011).

For the assay, the target named is T1, Glycogen phosphorylase, muscle form (Oryctolagus cuniculus, UniProt P00489).
T1 sequence (P00489 whole entry): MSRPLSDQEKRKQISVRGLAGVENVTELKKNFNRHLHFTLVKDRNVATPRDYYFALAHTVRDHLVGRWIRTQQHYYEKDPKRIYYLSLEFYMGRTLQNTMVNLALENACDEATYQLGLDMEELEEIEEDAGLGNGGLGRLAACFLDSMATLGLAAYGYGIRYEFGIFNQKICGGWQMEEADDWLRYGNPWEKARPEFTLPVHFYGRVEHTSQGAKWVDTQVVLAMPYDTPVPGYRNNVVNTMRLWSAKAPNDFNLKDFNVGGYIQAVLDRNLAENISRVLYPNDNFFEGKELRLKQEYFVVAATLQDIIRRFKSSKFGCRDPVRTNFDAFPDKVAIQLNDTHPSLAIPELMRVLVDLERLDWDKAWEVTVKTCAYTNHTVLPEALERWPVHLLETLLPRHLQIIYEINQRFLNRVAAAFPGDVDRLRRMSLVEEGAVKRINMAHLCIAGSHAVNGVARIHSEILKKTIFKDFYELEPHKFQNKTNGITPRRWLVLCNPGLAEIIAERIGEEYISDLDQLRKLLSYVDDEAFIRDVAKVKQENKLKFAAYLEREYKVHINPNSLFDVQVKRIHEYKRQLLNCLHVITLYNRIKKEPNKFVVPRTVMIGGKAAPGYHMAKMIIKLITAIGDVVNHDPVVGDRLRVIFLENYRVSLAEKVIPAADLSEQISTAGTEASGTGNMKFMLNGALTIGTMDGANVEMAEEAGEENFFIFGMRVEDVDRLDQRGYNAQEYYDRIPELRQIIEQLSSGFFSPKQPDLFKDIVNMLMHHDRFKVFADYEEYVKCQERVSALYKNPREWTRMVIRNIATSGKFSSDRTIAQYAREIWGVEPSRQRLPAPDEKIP
Put plainly: Inhibition of rabbit muscle glycogen phosphorylase A assessed as release of phosphate from glucose-1-phosphate after 25 mins by microplate reader based method.
For orientation: IC50 means the point on the concentration scale where inhibition reaches its midpoint. Consider `CC1(C)CC[C@]2(C(=O)O)CC[C@]3(C)C(=CC[C@@H]4[C@@]5(C)C[C@@H](O)CC(C)(C)[C@@H]5CC[C@]43C)[C@@H]2C1`, for which the IC50 was determined as 16.1 µM. The value for `CC1(C)CC[C@]2(C(=O)O)CC[C@]3(C)C(=CC[C@@H]4[C@@]5(C)C[C@H](O)CC(C)(C)[C@@H]5CC[C@]43C)[C@@H]2C1` was 22.7 µM; that for `CCCCCCCCCCCC(=O)OCc1cn(CC(=O)O[C@H]2CC[C@]3(C)[C@H]4CC=C5[C@@H]6CC(C)(C)CC[C@]6(C(=O)OCc6ccccc6)CC[C@@]5(C)[C@]4(C)CC[C@H]3C2(C)C)nn1` was 7.76 µM; that for `COC(=O)[C@H](Cc1ccc(OCc2cn(CC(=O)O[C@H]3CC[C@]4(C)[C@H]5CC=C6[C@@H]7CC(C)(C)CC[C@]7(C(=O)OCc7ccccc7)CC[C@@]6(C)[C@]5(C)CC[C@H]4C3(C)C)nn2)cc1)NC(=O)OC(C)(C)C` was 17.5 µM.

Turning to `CC(=O)O[C@H]1CC[C@]2(C)[C@H]3CC=C4[C@@H]5CC(C)(C)CC[C@]5(C(=O)OC[C@H](O)[C@H]5OC(=O)C(O)=C5O)CC[C@@]4(C)[C@]3(C)CC[C@H]2C1(C)C`, the IC50 is 2.23 µM.

Consider `CC(=O)NCCNCCNC(=O)[C@]12CCC(C)(C)C[C@H]1C1=CC[C@@H]3[C@@]4(C)CC[C@H](OC(C)=O)C(C)(C)[C@@H]4CC[C@@]3(C)[C@]1(C)CC2`, for which the IC50 amounted to 3.25 µM. The value for `C[C@H]1[C@H](C)CC[C@]2(C(=O)OCCBr)CC[C@]3(C)C(=CC[C@@H]4[C@@]5(C)CC[C@H](O)C(C)(C)[C@@H]5CC[C@]43C)[C@H]12` was 10.2 µM; that for `C[C@H]1[C@H](C)CC[C@]2(C(=O)OCCNC3CCCCC3)CC[C@]3(C)C(=CC[C@@H]4[C@@]5(C)CC[C@H](O)C(C)(C)[C@@H]5CC[C@]43C)[C@H]12` was 25.6 µM; that for `CC(=O)O[C@H]1CC[C@]2(C)[C@H]3CC=C4[C@@H]5[C@@H](C)[C@H](C)CC[C@]5(C(=O)OC[C@H](O)[C@H]5OC(=O)C(O)=C5O)CC[C@@]4(C)[C@]3(C)CC[C@H]2C1(C)C` was 1.53 µM. For `CC1(C)CC[C@]2(C(=O)O)CC[C@]3(C)C(=CC[C@@H]4[C@@]5(C)CC[C@H](OC(=O)Cn6cc(COC(=O)Cc7ccccc7)nn6)C(C)(C)[C@@H]5CC[C@]43C)[C@@H]2C1` the value was 30.9 µM; for `COCc1cn(CCCCCCn2cc(CO[C@H]3CC[C@]4(C)[C@H]5CC=C6[C@@H]7CC(C)(C)CC[C@]7(C(=O)O)CC[C@@]6(C)[C@]5(C)CC[C@H]4C3(C)C)nn2)nn1`, 2.59 µM.

Take `C[C@H]1[C@H](C)CC[C@]2(C(=O)O)CC[C@]3(C)C(=CC[C@@H]4[C@@]5(C)C[C@H](O)CC(C)(C)[C@@H]5CC[C@]43C)[C@H]12`: the IC50 was found to be 20.6 µM. For `CC1(C)CC[C@]2(C(=O)OCc3ccccc3)CC[C@]3(C)C(=CC[C@@H]4[C@@]5(C)C[C@H](O)[C@@H](O)C(C)(C)[C@@H]5CC[C@]43C)[C@@H]2C1` the value was 6.59 µM; for `CC(=O)O[C@@H]1O[C@H](OC(=O)[C@]23CCC(C)(C)C[C@H]2C2=CC[C@@H]4[C@@]5(C)C[C@@H](O)[C@H](O)C(C)(C)[C@@H]5CC[C@@]4(C)[C@]2(C)CC3)[C@@H](OC(C)=O)[C@H](OC(C)=O)[C@H]1OC(C)=O`, 18.6 µM. The value for `CCC(=O)O[C@@H]1C[C@]2(C)[C@H]3CC=C4[C@@H]5CC(C)(C)CC[C@]5(C(=O)O)CC[C@@]4(C)[C@]3(C)CC[C@H]2C(C)(C)[C@H]1OC(=O)CC` was 10.5 µM. The value for `CCCC(=O)O[C@@H]1C[C@]2(C)[C@H]3CC=C4[C@@H]5CC(C)(C)CC[C@]5(C(=O)O)CC[C@@]4(C)[C@]3(C)CC[C@H]2C(C)(C)[C@H]1OC(=O)CCC` was 25.2 µM; that for `C[C@H]1[C@H](C)CC[C@]2(C(=O)OCc3ccccc3)CC[C@]3(C)C(=CC[C@@H]4[C@@]5(C)C[C@H](O)[C@@H](O)C(C)(C)[C@@H]5CC[C@]43C)[C@H]12` was 1.25 µM; that for `COC(=O)[C@H](Cc1ccccc1)NC(=O)[C@]12CC[C@@H](C)[C@H](C)[C@H]1C1=CC[C@@H]3[C@@]4(C)C[C@@H](OC(C)=O)[C@H](OC(C)=O)C(C)(C)[C@@H]4CC[C@@]3(C)[C@]1(C)CC2` was 23.9 µM. As to `COC(=O)[C@H](Cc1ccc(O)cc1)NC(=O)[C@]12CC[C@@H](C)[C@H](C)[C@H]1C1=CC[C@@H]3[C@@]4(C)C[C@@H](OC(C)=O)[C@H](OC(C)=O)C(C)(C)[C@@H]4CC[C@@]3(C)[C@]1(C)CC2`, the IC50 worked out at 11.2 µM. Regarding `CC1(C)CC[C@]2(C(=O)O)CC[C@]3(C)[C@H]([C@@H](O)C[C@@H]4[C@@]5(C)CC[C@H](O)C(C)(C)[C@@H]5CC[C@]43C)[C@@H]2C1`, the IC50 came out at 3.07 µM. For `CC1(C)CC[C@]2(C(=O)OCc3ccccc3)CC[C@]3(C)[C@H]([C@@H](O)C[C@@H]4[C@@]5(C)CC[C@H](O)C(C)(C)[C@@H]5CC[C@]43C)[C@@H]2C1` the value was 6.54 µM; for `CC1(C)CC[C@]2(C(=O)OCc3ccccc3)CC[C@]3(C)[C@H]([C@H](O)C[C@@H]4[C@@]5(C)CC[C@H](O)C(C)(C)[C@@H]5CC[C@]43C)[C@@H]2C1`, 5.35 µM. The value for `CC1(C)CC[C@]2(C(=O)OCC(=O)O)CC[C@]3(C)C(=CC[C@@H]4[C@@]5(C)CC[C@H](O)C(C)(C)[C@@H]5CC[C@]43C)[C@@H]2C1` was 62.6 µM. Regarding `CCOC(=O)CCCOC(=O)[C@]12CCC(C)(C)C[C@H]1C1=CC[C@@H]3[C@@]4(C)CC[C@H](O)C(C)(C)[C@@H]4CC[C@@]3(C)[C@]1(C)CC2`, the half-inhibitory concentration (IC50) is 76.7 µM.

For the molecule `CNCCOC(=O)[C@]12CCC(C)(C)C[C@H]1C1=CC[C@@H]3[C@@]4(C)CC[C@H](O)C(C)(C)[C@@H]4CC[C@@]3(C)[C@]1(C)CC2`, the IC50 amounted to 53.2 µM. For `C[C@H]1[C@H](C)CC[C@]2(C(=O)OCC(=O)O)CC[C@]3(C)C(=CC[C@@H]4[C@@]5(C)CC[C@H](O)C(C)(C)[C@@H]5CC[C@]43C)[C@H]12` the value was 188 µM; for `CCOC(=O)COC(=O)[C@]12CC[C@@H](C)[C@H](C)[C@H]1C1=CC[C@@H]3[C@@]4(C)CC[C@H](O)C(C)(C)[C@@H]4CC[C@@]3(C)[C@]1(C)CC2`, 4.1 µM.

For `CC1(C)CC[C@]2(C(=O)O)CC[C@]3(C)C(=CC[C@@H]4[C@@]5(C)CC[C@H](OC(=O)/C=C\c6ccc(Cl)cc6)C(C)(C)[C@@H]5CC[C@]43C)[C@@H]2C1`, the IC50 stood at 3.3 µM.

Regarding `COc1ccc(/C=C\C(=O)O[C@H]2CC[C@]3(C)[C@H]4CC=C5[C@@H]6CC(C)(C)CC[C@]6(C(=O)O)CC[C@@]5(C)[C@]4(C)CC[C@H]3C2(C)C)cc1`, the IC50 was 16.9 µM. The value for `CC1(C)CC[C@]2(C(=O)O)CC[C@]3(C)C(=CC[C@@H]4[C@@]5(C)CCC(=O)[C@@](C)(CO)[C@@H]5CC[C@]43C)[C@@H]2C1` was 53.5 µM; that for `CC1(C)CC[C@]2(C(=O)O)CC[C@]3(C)C(=CC[C@@H]4[C@@]5(C)CC/C(=N\O)C(C)(C)[C@@H]5CC[C@]43C)[C@@H]2C1` was 225 µM; that for `CC1(C)CC[C@]2(C(=O)OCc3ccccc3)CC[C@]3(C)C(=CC[C@@H]4[C@@]5(C)CC/C(=N\O)C(C)(C)[C@@H]5CC[C@]43C)[C@@H]2C1` was 20.8 µM. The value for `CC(=O)O[C@@H]1C[C@]2(C)[C@H]3CC=C4[C@@H]5CC(C)(C)CC[C@]5(C(=O)O)CC[C@@]4(C)[C@]3(C)CC[C@H]2C(C)(C)[C@H]1OC(C)=O` was 13.3 µM; that for `C[C@H]1[C@H](C)CC[C@]2(C(=O)O)CC[C@]3(C)C(=CC[C@@H]4[C@@]5(C)CC[C@H](OC(=O)CCC(=O)O)C(C)(C)[C@@H]5CC[C@]43C)[C@H]12` was 27.6 µM. On to `CC1(C)CC[C@]2(C(=O)O)CC[C@]3(C)C(=CC[C@@H]4[C@@]5(C)Cc6nc7ccccc7nc6C(C)(C)[C@@H]5CC[C@]43C)[C@@H]2C1`, for which the IC50 worked out at 14 µM. The value for `CC1(C)CC[C@]2(C(=O)O)CC[C@]3(C)C(=CC[C@@H]4[C@@]5(C)Cc6nccnc6C(C)(C)[C@@H]5CC[C@]43C)[C@@H]2C1` was 25.1 µM. The value for `CC1(C)CC[C@]2(C(=O)O)CC[C@]3(C)C(=CC[C@@H]4[C@@]5(C)C[C@@H](O)[C@H](O)[C@@](C)(CO)[C@@H]5CC[C@]43C)[C@@H]2C1` [ARJUNOLIC ACID] was 103 µM. For `CC1(C)CC[C@]2(C(=O)OCc3ccccc3)CC[C@]3(C)C(=CC[C@@H]4[C@@]5(C)C[C@H](O)[C@H](O)C(C)(C)[C@@H]5CC[C@]43C)[C@@H]2C1` [BENZYL AUGUSTATE] the value was 21.7 µM. Consider `COC(=O)[C@]12CC[C@@H](C)[C@H](C)[C@H]1C1=CC[C@@H]3[C@@]4(C)C[C@@H](O)[C@H](O)C(C)(C)[C@@H]4CC[C@@]3(C)[C@]1(C)CC2` [COROSOLIC ACID METHYL ESTER], for which the IC50 is 33.7 µM. For `CC(=O)O[C@H]1CC[C@]2(C)[C@H]3CC=C4[C@@H]5[C@@H](C)[C@H](C)CC[C@]5(C(=O)O)CC[C@@]4(C)[C@]3(C)CC[C@H]2C1(C)C` [O-ACETYLURSOLIC ACID] the value was 131 µM.
